Columns and labels:
Assay type in all cases: in vivo
B6 mice [1] = test: Triglyceride (TG) and total cholesterol (TC) in pancreatic tissue of high-fat diet mice; settings: 4 weeks of administration
Experimental: (§1) The experimental animals employed were B6 mice. The number of test animals in each group of the pre-test was four or more, and the number of test animals in each group of the confirmation test was twelve or more. Male mice having a weight of 18 to 23 g were bred in an animal room with a normal light and dark cycle (7:00 am to 7:00 pm being the bright period, and the rest being the dark period) at a temperature of 23±2° C. and a relative humidity of 55±15%. After the animals were purchased from Lesco Biotech Co., Ltd. (Taipei) and housed at the National Defense Animal Center, the animal experiments were conducted following the Experimental Guide of National Health Research Institute. First, the animals were fed with 3-5 grams of general diet daily, and the water was supplied infinitely. After 1 to 2 weeks of breeding, the healthy state was observed. The body weight was recorded once a week.
(§2) The test animals were randomly grouped into blank control (Blank), high-fat control (HFD), positive control (PS), and test group. The blank control was given a normal diet; the high-fat control was given a high-fat diet; the positive control was given a high-fat diet and tube fed with silymarin (5 mg/kg/day) (Iranian Journal of Pharmaceutical Research (2016), 15 (3): 493-500; Life Sciences 75 (2004) 2167-2180; and Pharm Biol. 2016 Jul. 8:1-6); and the test group was given a high-fat diet and tube fed with the test ingredient individually.
(§3) The blank control was fed with a normal diet arbitrarily for 12 weeks. The high-fat control, the positive control, and the test group were fed with a high-fat diet arbitrarily for 12 weeks. After 8 weeks of feeding, the blank control and the high-fat control were tube fed with deionized water once a day. The positive control was tube fed with silymarin once a day. The test group was tube fed with test compound(s) once a day for 4 weeks.
1.4.6 Analysis of Triglyceride (TG) and Total Cholesterol (TCHO, TC) in Pancreatic Tissue
After the mice were sacrificed, the pancreas was taken out and weighed to compare the ratios of pancreas weight to body weight. The remaining pancreas was frozen and preserved, and the contents of triglyceride and the total cholesterol in the pancreas were measured.
(§4) All data were expressed as mean±standard deviation (SD), and the test results were calculated using the ANOVA test method to determine whether there was a statistically significant difference by using the Statistical Package of the Social Science program (Version 13, SPSS Inc.) software package. Subsequently, post hoc test least significant difference method was used to perform multiple comparisons to confirm the significant differences between the groups. The significant difference between the averages of the groups was p<0.05.

B6 mice [2] = test: Blood glucose analysis (GLU) in high-fat diet mice; settings: for GLU: fasted overnight, 4 weeks of administration; for effect on GLU (in words): single test compound
Experimental: as §1, §2, §3
1.4.2 Analysis of Biochemical Functions of the Pancreas: Blood Glucose Analysis (GLU)
Blood glucose analysis was performed with Roche's ACCU-CHEK Active blood glucose meter. One day before blood collection, mice were fasted overnight. The code card of the blood glucose test paper was inserted into the blood glucose meter, and then the blood glucose test paper was inserted. After the blood drop pattern appeared on the meter, a drop of blood was taken from in vein at the cheek of the mouse with a buccal needle and then dropped into the blood glucose test paper. The blood glucose data shown on the blood glucose meter were recorded.
as §4

B6 mice [3] = test: Intraperitoneal glucose tolerance test (IPGTT) in high-fat diet mice; settings: for AUC of IPGTT: 2 g/kg glucose IP, blood glucose vs. time, 4 weeks of administration; for effect on sugar tolerance (IPGTT, in words): single test compound
Experimental: as §1, with “Male mice having a weight of 18 to 23 g were bred in an animal room with a normal light and dark cycle (7:00 am to 7:00 pm being the bright period, and the rest being the dark period) at a temperature of 23±2° C. and a relative humidity of 55±15%.” left out
The test animals were randomly grouped into blank control (Blank), high-fat control (HFD), positive control (PS), and test group.
as §3
1.4.3 Analysis of Biochemical Functions of the Pancreas: Intraperitoneal Glucose Tolerance Test (IPGTT)
The mice were moved into a clean cage and fasted overnight. There was no food or feces at the feeding funnel or the bottom of the clean cage to ensure that the animals may get drinking water at all times. The body weight of the mice was measured, and the volume of the glucose solution required for intraperitoneone (IP) injection was calculated (based on a concentration of 250 mg/mL and 2 g of glucose per kg of mouse weight, the volume (μl) required would be 8× body weight (g)). The mice were moved out and injected intraperitoneally with an appropriate amount of glucose solution, and the injection time was recorded. Blood samples were taken from the tail of the mice at 0, 15, 30, 60, 120 and 150 minutes after the glucose solution was injected. The concentration of blood glucose was measured, and the blood glucose analysis was performed using the Roche's ACCU-CHEK Active blood glucose meter.
as §4

B6 mice [4] = test: Fasting insulin concentration (ELISA) in high-fat diet mice; settings: for fasting insulin concentration: 4 weeks of administration; for effect on fasting insulin concentration (in words): single test compound
Experimental: as §1, §2, §3
1.4.4 Analysis of Biochemical Functions of the Pancreas: Analysis of Fasting Insulin Concentration
At the end of the test (at the twelfth week), the mice were fasted to collect the blood following the operation instructions of the mouse ultrasensitive insulin ELISA kit (ALPCO).
as §4

B6 mice [5] = test: Homeostasis model assessment of insulin resistance (HOMA-IR) in high-fat diet mice; settings: for HOMA-IR: 4 weeks of administration; for effect on insulin resistance (in words): single test compound
Experimental: as §1, §2, §3
1.4.5 Analysis of Biochemical Functions of the Pancreas: Homeostasis Model Assessment of Insulin Resistance (HOMA-IR)
The mice were fasted to collect the blood at the end of the test (at the twelfth week), and the concentrations of blood glucose and insulin were measured and calculated according to the following formula: […]
as §4

B6 mice [6] = test: Serum (plasma) triglyceride (TG) in high-fat diet mice; settings: for TG (plasma triglyceride): 4 weeks of administration
Experimental: as §1, §2, §3
Before the start of the test and at the 8th and 12th week after the start of the test, blood was collected from the cheek or heart. All the animals were weighed and then sacrificed at the end of the test, and blood was collected from the cheek or heart again. The blood samples of mice were allowed to stand at room temperature for 1 hour to coagulate, and then centrifuged at 15,700×g by a frozen centrifuge at 4° C. for 5 minutes to separate the serum.
1.4.1 Analysis of Serum Triglyceride (TG) and Total Cholesterol (TCHO, TC)
Triglyceride (TG) and total cholesterol (TCHO, TC) in the serum were measured by the automatic blood biochemical analyzer.
as §4

Row | Compound | pancreatic TC (B6 mice [1]; 1.5 mg/kg tube fed once a day) [mg/g pancreatic tissue] | pancreatic TG (B6 mice [1]; 1.5 mg/kg tube fed once a day) [mg/g pancreatic tissue] | GLU (B6 mice [2]; 1.5 mg/kg) [mg/dL] | effect on GLU (in words) (B6 mice [2]) | AUC of IPGTT (B6 mice [3]; 1.5 mg/kg) [g·h/dL] | effect on sugar tolerance (IPGTT, in words) (B6 mice [3]) | fasting insulin concentration (B6 mice [4]; 1.5 mg/kg) [ng/mL] | effect on fasting insulin concentration (in words) (B6 mice [4]) | HOMA-IR (B6 mice [5]; 1.5 mg/kg) | effect on insulin resistance (in words) (B6 mice [5]) | TG (plasma triglyceride) (B6 mice [6]; 1.5 mg/kg) [mg/dL] | pancreatic TC (B6 mice [1]; 2.5 mg/kg tube fed once a day) [mg/g pancreatic tissue] | pancreatic TG (B6 mice [1]; 2.5 mg/kg tube fed once a day) [mg/g pancreatic tissue] | GLU (B6 mice [2]; 2.5 mg/kg) [mg/dL] | AUC of IPGTT (B6 mice [3]; 2.5 mg/kg) [g·h/dL] | fasting insulin concentration (B6 mice [4]; 2.5 mg/kg) [ng/mL] | HOMA-IR (B6 mice [5]; 2.5 mg/kg) | TG (plasma triglyceride) (B6 mice [6]; 2.5 mg/kg) [mg/dL] | further results
1 | OC[C@@H](O)[C@@H](O)[C@H](O)[C@H](O)CO [mannitol] | 3.7 ± 1.0 | 12.6 ± 7.5 | 112.2 ± 32.0 | significantly reduce | 42.7 ± 1.7 | significantly reduce | 1.1 ± 0.4 | significantly reduce | 0.3 ± 0.1 | significantly reduce | 158.9 ± 48.9 |  |  |  |  |  |  |  | pancreatic TC (B6 mice [1]; 4.5 mg/kg tube fed once a day): 3.3 ± 0.7 mg/g pancreatic tissue; pancreatic TG (B6 mice [1]; 4.5 mg/kg tube fed once a day): 9.6 ± 5.1 mg/g pancreatic tissue; pancreatic TC (B6 mice [1]; 7.5 mg/kg tube fed once a day): 3.1 ± 0.3 mg/g pancreatic tissue; pancreatic TG (B6 mice [1]; 7.5 mg/kg tube fed once a day): 4.7 ± 4.0 mg/g pancreatic tissue; TG (plasma triglyceride) (B6 mice [6]; 4.5 mg/kg): 180.1 ± 46.7 mg/dL; TG (plasma triglyceride) (B6 mice [6]; 7.5 mg/kg): 163.9 ± 31.9 mg/dL
2 | O=c1c(-c2ccc(O)cc2)coc2c([C@@H]3O[C@H](CO)[C@@H](O)[C@H](O)[C@H]3O)c(O)ccc12 [puerarin] |  |  |  |  |  | significantly reduce |  | significantly reduce |  | significantly reduce |  | 4.0 ± 1.2 | 17.3 ± 13.4 | 172.3 ± 22.2 | 45.1 ± 11.2 | 0.9 ± 0.3 | 0.4 ± 0.2 | 166.7 ± 22.0 | 
3 | OC[C@H]1O[C@H](O[C@]2(CCl)O[C@H](CCl)[C@@H](O)[C@@H]2O)[C@H](O)[C@@H](O)[C@H]1Cl [sucralose] | 4.2 ± 0.5 | 8.1 ± 5.6 | 128.7 ± 19.3 | significantly reduce | 44.2 ± 3.7 | significantly reduce | 1.3 ± 0.5 | significantly reduce | 0.4 ± 0.2 | significantly reduce | 126.9 ± 43.3 |  |  |  |  |  |  |  | pancreatic TC (B6 mice [1]; 7.5 mg/kg tube fed once a day): 3.1 ± 0.4 mg/g pancreatic tissue; pancreatic TG (B6 mice [1]; 7.5 mg/kg tube fed once a day): 5.2 ± 2.1 mg/g pancreatic tissue; TG (plasma triglyceride) (B6 mice [6]; 7.5 mg/kg): 186.9 ± 17.2 mg/dL
4 | O=C1NS(=O)(=O)c2ccccc21 [saccharin] | 3.0 ± 0.8 | 4.7 ± 2.9 | 92.0 ± 9.6 | significantly reduce | 41.9 ± 6.2 | significantly reduce | 1.3 ± 1.1 | significantly reduce | 0.3 ± 0.3 | significantly reduce | 142.6 ± 34.6 |  |  |  |  |  |  |  | 
5 | O=C1C[C@@H](c2ccc(O)c(O)c2)Oc2cc(O)cc(O)c21 [eriodictyol] |  |  |  |  |  | significantly reduce |  | significantly reduce |  | significantly reduce |  | 3.5 ± 0.6 | 4.5 ± 2.8 | 219.0 ± 35.6 | 41.9 ± 5.9 | 1.1 ± 0.4 | 0.6 ± 0.2 | 135.4 ± 43.4 | TG (plasma triglyceride) (B6 mice [6]; 5.0 mg/kg): 143.2 ± 15.1 mg/dL; effect on triglyceride in plasma (in words) (B6 mice [6]; as compared with the high-fat control): significantly reduce
6 | O=C(CCc1ccc(O)cc1)c1c(O)cc(O)cc1O[C@@H]1O[C@H](CO)[C@@H](O)[C@H](O)[C@H]1O [phloridzin] |  |  |  |  |  |  |  |  |  |  |  | 3.3 ± 1.1 | 23.3 ± 24.0 | 216.2 ± 26.4 | 51.3 ± 8.9 | 1.1 ± 0.3 | 0.6 ± 0.2 | 148.3 ± 31.4 | 
7 | CC1CCC(C(C)C)C(O)C1 (stereo not shown) [menthol] | 4.4 ± 0.9 | 18.1 ± 18.3 | 125.7 ± 33.5 | significantly reduce | 45.6 ± 4.8 | significantly reduce | 1.2 ± 0.8 | significantly reduce | 0.4 ± 0.4 | significantly reduce | 173.7 ± 56.7 |  |  |  |  |  |  |  | 
8 | COc1ccc([C@@H]2CC(=O)c3c(O)cc(O)cc3O2)cc1O [hesperitin] |  |  |  |  |  |  |  |  |  |  |  | 4.4 ± 0.7 | 5.7 ± 1.6 |  |  |  |  | 190.1 ± 25.9 | 

Source: US20180325840A1, “COMPOSITIONS AND METHODS FOR PREVENTING OR TREATING FATTY PANCREAS OR AMELIORATING PANCREAS DISEASES CAUSED BY FATTY PANCREAS, DIABETES MELLITUS OR OTHER RELATED DISORDERS” (NATIONAL DEFENSE EDUCATION AND RESEARCH FOUNDATION, priority 2015, published 2018)
